From patent publication US20230287021A1, “COMPOUNDS, COMPOSITIONS AND METHODS FOR STABILIZING TRANSTHYRETIN AND INHIBITING TRANSTHYRETIN MISFOLDING” (Protego Biopharma, Inc., priority 2020, published 2023)
Counter-ions that a name gives are not always drawn.

How the values were obtained:
[1] = In vitro rat plasma stability assay, formation of tafamidis; type: in vitro ADME; details: 37° C., 2 µM test compound
Method: A stability assay in plasma (rat or human) was used to evaluate the ability of a compound provided herein to convert to an active TTR stabilizer. The test compound was added to plasma and incubated at 37° C. in a water bath at a concentration of 2 µM. At each time point (0, 10, 30, 60 and 120 min or 0, 60, 120, 180 and 240 min), stop solution (tolbutamide plus labetalol) was added to precipitate protein and mixed thoroughly. After centrifugation, an aliquot of supernatant was analyzed by LC-MS/MS. The percentage of formation of active agent was calculated at each time point.

[2] = In vitro rat liver S9 stability assay, formation of tafamidis; type: in vitro ADME; details: rat liver S9, 37° C., 1 µM test compound
Method: The test compound was added to liver S9 and incubated at 37° C. in a water bath at a concentration of 1 µM. At each time point (0, 5, 10, 20, 30 and 60 min), stop solution (tolbutamide plus labetalol) was added to precipitate protein and mixed thoroughly. After centrifugation, an aliquot of supernatant was analyzed by LC-MS/MS. The percentage of formation of active agent was calculated at each time point.

SMILES | Formation of tafamidis at 120 min [1] | Formation of tafamidis at 60 min [2]
O=C(OC1CC2CCC1CN2)c1ccc2nc(-c3cc(Cl)cc(Cl)c3)oc2c1 (stereo not drawn) [Compound 27, 2-azabicyclo[2.2.2]octan-5-yl 2-(3,5-dichlorophenyl)benzo [d]oxazole-6-carboxylate hydrochloride] | A (A is <25%) | A (A is <25%)
O=C(OC1CCNC1)c1ccc2nc(-c3cc(Cl)cc(Cl)c3)oc2c1 (stereo not drawn) [Compound 17, pyrrolidin-3-yl 2-(3,5-dichlorophenyl)benzo[d]oxazole-6-carboxylate hydrochloride] | A (A is <25%) | A (A is <25%)
CN1CC(OC(=O)c2ccc3nc(-c4cc(Cl)cc(Cl)c4)oc3c2)C(F)(F)C1 (stereo not drawn) [Compound 175] | D (D is ≥75%) | D (D is ≥75%)
CN1CCCC1COC(=O)c1ccc2nc(-c3cc(Cl)cc(Cl)c3)oc2c1 (stereo not drawn) [Compound 61, (1-methylpyrrolidin-2-yl)methyl 2-(3,5-dichlorophenyl)benzo [d] oxazole-6-carboxylate] | D (D is ≥75%) | C (C is ≥50 to <75%)
O=C(OCc1ccccn1)c1ccc2nc(-c3cc(Cl)cc(Cl)c3)oc2c1 [Compound 103] | B (B is ≥25 to <50%) | D (D is ≥75%)
CC(C)(C)OC(=O)N1CC2CCC1CC2OC(=O)c1ccc2nc(-c3cc(Cl)cc(Cl)c3)oc2c1 (stereo not drawn) [Compound 26, 2-(tert-butoxycarbonyl)-2-azabicyclo[2.2.2]octan-5-yl 2-(3,5-dichlorophenyl) benzo [d] oxazole-6-carboxylate] | A (A is <25%) | A (A is <25%)
O=C(OCCN1CCCCC1)c1ccc2nc(-c3cc(Cl)cc(Cl)c3)oc2c1 [Compound 34, 2-(piperidin-1-yl)ethyl 2-(3,5-dichlorophenyl)benzo[d] oxazole-6-carboxylate] | A (A is <25%) | C (C is ≥50 to <75%)
CC(CCn1ccnc1)OC(=O)c1ccc2nc(-c3cc(Cl)cc(Cl)c3)oc2c1 (stereo not drawn) [Compound 178, 4-(1H-imidazol-1-yl)butan-2-yl 2-(3,5-dichlorophenyl)-benzo [d] oxazole-6-carboxylate] | C (C is ≥50 to <75%) | C (C is ≥50 to <75%)
O=C(OCC1CCCO1)c1ccc2nc(-c3cc(Cl)cc(Cl)c3)oc2c1 (stereo not drawn) [Compound 86] | D (D is ≥75%) | D (D is ≥75%)
O=C(OC1CCc2nccn2C1)c1ccc2nc(-c3cc(Cl)cc(Cl)c3)oc2c1 (stereo not drawn) [Compound 157, 5,6,7,8-tetrahydroimidazo[1,2-a]pyridin-6-yl 2-(3,5-dichlorophenyl)benzo[d]oxazole-6-carboxylate hydrochloride] | B (B is ≥25 to <50%) | A (A is <25%)
CN1CC2CCC1CC2OC(=O)c1ccc2nc(-c3cc(Cl)cc(Cl)c3)oc2c1 (stereo not drawn) [Compound 32, 2-methyl-2-azabicyclo[2.2.2]octan-5-yl 2-(3,5-dichlorophenyl) benzo [d]oxazole-6-carboxylate] | A (A is <25%) | A (A is <25%)
CCNC(=O)c1ccc2nc(-c3cc(Cl)cc(Cl)c3)oc2c1 [Compound 183] | A (A is <25%) | A (A is <25%)
O=C(OC1CCN2CCCC12)c1ccc2nc(-c3cc(Cl)cc(Cl)c3)oc2c1 (stereo not drawn) [Compound 180, Hexahydro-1H-pyrrolizin-1-yl 2-(3,5-dichlorophenyl)benzo[d]oxazole-6-carboxylate] | B (B is ≥25 to <50%) | A (A is <25%)
O=C(OCc1ncc[nH]1)c1ccc2nc(-c3cc(Cl)cc(Cl)c3)oc2c1 [Compound 89] | C (C is ≥50 to <75%) | D (D is ≥75%)
Cn1ccnc1COC(=O)c1ccc2nc(-c3cc(Cl)cc(Cl)c3)oc2c1 [Compound 98] | C (C is ≥50 to <75%) | D (D is ≥75%)
CC(C)(C)OC(=O)N1CCC(OC(=O)c2ccc3nc(-c4cc(Cl)cc(Cl)c4)oc3c2)CC1 [Compound 12, 1-(tert-butoxycarbonyl)piperidin-4-yl 2-(3,5-dichlorophenyl)benzo [d]oxazole-6-carboxylate] | A (A is <25%) | 
O=C(OCCC1CCCO1)c1ccc2nc(-c3cc(Cl)cc(Cl)c3)oc2c1 (stereo not drawn) [Compound 97] | A (A is <25%) | 
O=C(OCCCC1CCCO1)c1ccc2nc(-c3cc(Cl)cc(Cl)c3)oc2c1 (stereo not drawn) [Compound 101] | C (C is ≥50 to <75%) | 

SMILES | Formation of tafamidis at 120 min [1] | Formation of tafamidis at 60 min [2]
O=C(NCC(F)(F)F)c1ccc2nc(-c3cc(Cl)cc(Cl)c3)oc2c1 [Compound 67, 2-(3,5-dichlorophenyl)-N-(2,2,2-trifluoroethyl)benzo[d] oxazole-6-carboxamide] | A (A is <25%) | 
CN(C)C(CO)COC(=O)c1ccc2nc(-c3cc(Cl)cc(Cl)c3)oc2c1 (stereo not drawn) [Compound 55, 2-(dimethylamino)-3-hydroxypropyl 2-(3,5-dichlorophenyl) benzo [d]oxazole-6-carboxylate] | D (D is ≥75%) | 
O=C(OCCN1CCOCC1)c1ccc2nc(-c3cc(Cl)cc(Cl)c3)oc2c1 [Compound 80] | B (B is ≥25 to <50%) | D (D is ≥75%)
O=C(OCCCN1CCOCC1)c1ccc2nc(-c3cc(Cl)cc(Cl)c3)oc2c1 [Compound 81] | D (D is ≥75%) | 
CC(C)(C)OC(=O)NCCOC(=O)c1ccc2nc(-c3cc(Cl)cc(Cl)c3)oc2c1 [Compound 10, 2-((tert-butoxycarbonyl)amino)ethyl 2-(3,5-dichlorophenyl) benzo [d]oxazole-6-carboxylate] | A (A is <25%) | 
C[C@H](COC(=O)c1ccc2nc(-c3cc(Cl)cc(Cl)c3)oc2c1)N(C)C [Compound 45, (R)-2-(dimethylamino)propyl 2-(3,5-dichlorophenyl)benzo[d] oxazole-6-carboxylate] | C (C is ≥50 to <75%) | 
O=C(OCCC[n+]1ccccc1)c1ccc2nc(-c3cc(Cl)cc(Cl)c3)oc2c1.[Br-] [Compound 3, 1-(3-(2-(3,5-Dichlorophenyl)benzo[d]oxazole-6-carbonyloxy)propyl)-pyridinium bromide] | A (A is <25%) | 
N[C@H](Cc1ccc(OC(=O)c2ccc3nc(-c4cc(Cl)cc(Cl)c4)oc3c2)cc1)C(=O)O [Compound 71] | A (A is <25%) | 
Cc1oc(=O)n(C)c1COC(=O)c1ccc2nc(-c3cc(Cl)cc(Cl)c3)oc2c1 [Compound 30, (3,5-dimethyl-2-oxo-2,3-dihydrooxazol-4-yl)methyl 2-(3,5-dichlorophenyl) benzo[d]oxazole-6-carboxylate] | B (B is ≥25 to <50%) | 
CN1CCN(CCOC(=O)c2ccc3nc(-c4cc(Cl)cc(Cl)c4)oc3c2)CC1 [Compound 93] | B (B is ≥25 to <50%) | 
CC(=O)OCC(COC(C)=O)OC(=O)c1ccc2nc(-c3cc(Cl)cc(Cl)c3)oc2c1 [Compound 2, 2-(2-(3,5-Dichlorophenyl)benzo[d]oxazole-6-carbonyloxy)propane-1,3-diyl diacetate] | B (B is ≥25 to <50%) | 
NCCOC(=O)c1ccc2nc(-c3cc(Cl)cc(Cl)c3)oc2c1 [Compound 15, 2-aminoethyl 2-(3,5-dichlorophenyl)benzo[d]oxazole-6-carboxylate] | A (A is <25%) | 
CN1C[C@@H](O)[C@H](OC(=O)c2ccc3nc(-c4cc(Cl)cc(Cl)c4)oc3c2)C1 [Compound 56, (3R,4R)-4-hydroxy-1-methylpyrrolidin-3-yl 2-(3,5-dichlorophenyl)benzo[d] oxazole-6-carboxylate] | D (D is ≥75%) | 
O=C(NCCO)c1ccc2nc(-c3cc(Cl)cc(Cl)c3)oc2c1 [Compound 64, 2-(3,5-dichlorophenyl)-N-(2-hydroxyethyl)benzo[d]oxazole-6-carboxamide] | A (A is <25%) | 
NCCCOC(=O)c1ccc2nc(-c3cc(Cl)cc(Cl)c3)oc2c1 [Compound 25, 3-aminopropyl 2-(3,5-dichlorophenyl)benzo[d]oxazole-6-carboxylate hydrochloride] | A (A is <25%) | 
CC(C)(C)OC(=O)N[C@H](Cc1ccc(OC(=O)c2ccc3nc(-c4cc(Cl)cc(Cl)c4)oc3c2)cc1)C(=O)OCc1ccccc1 [Compound 69] | A (A is <25%) | 
O=C(NCCCO)c1ccc2nc(-c3cc(Cl)cc(Cl)c3)oc2c1 [Compound 68, 2-(3,5-dichlorophenyl)-N-(3-hydroxypropyl)benzo[d]oxazole-6-carboxamide] | A (A is <25%) | 
